Assay results as given in publication PMC4971421, “Redox-Dependent Modulation of T-Type Ca^2+ Channels in Sensory Neurons Contributes to Acute Anti-Nociceptive Effect of Substance P” (Antioxidants & Redox Signaling, 2016).

What was measured:
[1] = tested on: T-type Ca^2+ channels (LVA Ca^2+ current) in DRG neurons; test: LVA (T-type) Ca2+ current, whole-cell patch clamp, cultured small-diameter DRG neurons; assay type: cell-based, rat; conditions: 1 μM; mean ± SEM, n = 7; SEM
Description: DRG neurons from adult male Sprague–Dawley rats (170–180 g) were dissociated as previously described ([13], [29]) and cultured in DMEM supplemented with GlutaMax I, 10% fetal calf serum, penicillin (50 U/ml), and streptomycin (50 μg/ml) on glass coverslips that were coated with poly-D-lysine for 2–5 days in a humidified incubator (37°C, 5% CO2). No growth factors were added to the culture media. HEK 293 cells were cultured in the same DMEM media; cells were passaged every 2 days. Human NK1 receptor (GenBank accession No. AY462098) complementary DNA (cDNA) was from the Missouri Science and Technology cDNA Resource Center. WtCaV3.1 (GenBank accession No. AF027984), wtCaV3.2 (GenBank accession No. AF051946), CaV3.1Q172H, and CaV3.2H191Q were kindly provided by Dr E. Perez-Reyes (University of Virginia). HEK293 cells were transfected using Lipofectamine 2000 (Invitrogen) according to the manufacturer's instructions. ST101 was synthesized in house; Z944 was from Toronto Research Chemicals; PTX was from Enzo Life Science; and FluoZin-3AM was from Life Technologies. All other chemicals were from Sigma.
All recordings were made using Multiclamp 700B amplifier in combination with pCLAMP 10.4 software (Molecular Devices). Voltage-clamp recordings from DRG neurons were made using whole-cell patch clamp. The standard bath solution contained the following (in mM): 150 TEA-Cl; 2.5 CsCl; 2.5 CaCl2; 10 HEPES; 0.5 MgCl2; and 10 glucose (pH 7.4 adjusted with CsOH). The standard pipette solution contained the following (in mM): 110 CsCl; 3 MgCl2; 10 EGTA; 10 HEPES; 3 Mg-ATP; and 0.6 GTP (pH 7.4 adjusted with CsOH). The access resistance was typically within 4–8 MΩ. T-type calcium currents (LVA) were measured by 50 ms square voltage pulses to −40 mV from a holding potential of −90 mV. HVA currents were measured by 200 ms square voltage pulses to 0 mV from a holding potential of −90 mV.
where y is the current inhibition; A1 and A2 are the maximum and minimum effects, respectively; x is the S9SP concentration; and nH is the Hill coefficient.

[2] = tested on: small-diameter DRG neurons; test: DRG neuron excitability, perforated patch current clamp; assay type: cell-based, rat
Description: To knock down CaV3.2, DRGs were dissociated as described ([13]); immediately after dissociation, DRG pellets were resuspended in 900 μl DMEM (without GlutaMax I, serum or antibiotics), to which a mixture of 9 μl Lipofectamine RNAiMAX (Invitrogen) and either a mix of three anti-Cacna1h Stealth siRNAs (RSS350285, RSS350286, RSS350287; Life Technologies; 200 nM each) or a scrambled control oligo (Stealth RNAi™ siRNA Negative Control; Life Technologies; 200 nM) were added immediately before resuspension. Cultures were than plated in 50 μl droplets onto glass coverslips that were coated with poly-D-lysine and incubated for 5–6 h; the transfection media were then replaced with full DRG culture medium. Patch-clamp recordings were conducted 24–48 h after the transfection. The following primers were used for reverse transcription polymerase chain reaction (RT-PCR) analysis: • Cacna1h sense: 5′-[…]-3′ • Cacna1h AS: 5′-[…]-3′ • Gapdh sense: 5′-[…]-3′ • Gapdh AS: 5′-[…]-3′
Neuronal excitability was studied using the amphotericin B-perforated patch-clamp current technique ([13]). The extracellular solution contained the following (in mM): 160 NaCl, 2.5 KCl, 5 CaCl2, 1 MgCl2, 10 HEPES, and 8 Glucose. The intracellular solution contained the following (in mM): 145 KCl, 15 NaCl, 5 MgCl2, 10 HEPES, and 250 μg/ml Amphotericin B. The access resistance was typically within […]. APs were generated by an injection of 200 pA current for 1 s from a holding current of 0 pA. Rheobase was determined from a train of current steps from 0 to 400 pA delivered in 20-pA increments. Current clamp recordings were sampled at 12.5 kHz. Bridge balance adjustments were not applied, since only relative changes in Erest, AP number, and rheobase were investigated.

rat hind paw = test: von Frey test; assay type: in vivo; conditions: 50 μl; 0.5 nmol/site; filaments 2–15 g; 8 min after injection
Description: For measurement of sensitivity to gentle touch and mechanical hyperalgesia, two methods were used. (i) Cotton swab test was performed as previously described ([53]). Briefly, rats were allowed to acclimate in a cage with a wire mesh bottom for at least 30 min and then were manually probed with a “cotton swab” pulled from a Q-tip (to approximately three times the original size). A swab was applied in a sweeping motion underneath the rats’ paws, and the withdrawal responses were recorded. Five sweeps were applied in each test, with at least 10 s between each sweep; withdrawal score was calculated as a percentage of positive responses. (ii) The von Frey test was performed using a calibrated range of filaments with different bending forces (2, 4, 6, 8, 10, and 15 g; Stoelting Co.). A single filament was applied perpendicularly to the plantar surface of the hind paw for five times, with an interval of 5 s, and it was scored for withdrawal responses. Each force was probed five times, the number of withdrawals out of five trials was counted, and the percentage of withdrawal responses was calculated. Both types of assays were performed 8 min after the hind-paw drug injection.

SMILES: CC(C)(C)NC(=O)CN1CCC(CNC(=O)c2cc(F)cc(Cl)c2)CC1 [Z944, N-[[1-[2-(tert-butylamino)-2-oxoethyl]piperidin-4-yl]methyl]-3-chloro-5-fluorobenzamide]
- inhibition of LVA current [1]: 71.4% ± 2.7%
- AP amplitude or duration [2]: without significantly affecting
- resting membrane potential (Erest) [2]: hyperpolarized
- action potential (AP) firing ([2]; 200 pA for 1 s): decreased
- effects of BK on the rheobase and the AP number when co-applied with BK ([2]; BK 250 nM): completely reversed
- rheobase ([2]; current steps 0–400 pA in 20-pA increments): significantly increased
- small DRG neuron excitability ([2]; perforated current clamp): decreased
- effect on Erest, AP number, or rheobase in Cacna1h knocked-down neurons ([2]; siRNA against Cacna1h): neither Z994 nor ST101 produced any significant effect
- response to von Frey filament stimulation (rat hind paw): significantly impaired their ability to respond to stimulation
